# In patent US11590139B2, “Substituted aminopurine compounds, compositions thereof, and methods of treatment therewith” (Signal Pharmaceuticals, LLC, priority 2014, dated 2023):
# Tested on: Lox-IMVI melanoma cell line
# Test: Lox-IMVI anti-proliferative assay (growth inhibition, Cell Titer-Glo)
# Type: cell-based, human
# Conditions: Homo sapiens; IC50 activity level in the cell-based Lox-IMVI anti-proliferative assay; read-out: Activity
# Summary of the method: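 Growth inhibition is assessed over 72 h in RPMI + 10% FBS at 0.2% DMSO, with ATP-based luminescence used as the viability measure. IC50 is fitted from normalized dose-response data.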
row,Compound,IC50 [µM]
1,"C[C@@H](O)CNc1ncc2nc(Nc3c(Cl)cc(Cl)cc3Cl)n([C@H]3CC[C@@H](C(N)=O)CC3)c2n1 [Example 152, (1S,4s)-4-(2-((R)-2-hydroxypropylamino)-8-(2,4,6-trichlorophenylamino)-9H-purin-9-yl)cyclohexanecarboxamide]",> 1
2,"NC(=O)[C@H]1CC[C@@H](n2c(Nc3ccc(Cl)cc3Cl)nc3cnc(NC4CCCC4)nc32)CC1 [Example 94, (1s,4s)-4-(2-(cyclopentylamino)-8-(2,4-dichlorophenylamino)-9H-purin-9-yl)cyclohexanecarboxamide]",> 1
3,"N#Cc1cc(F)c(Nc2nc3cnc(NC4CCC(F)(F)CC4)nc3n2[C@H]2CC[C@@H](C(N)=O)CC2)c(F)c1 [Example 396, (1s,4s)-4-(8-(4-cyano-2,6-difluorophenylamino)-2-(4,4-difluorocyclohexylamino)-9H-purin-9-yl)cyclohexanecarboxamide]",0.5 to 1
4,"Cc1cc(Cl)c(Nc2nc3cnc(NC4CCOCC4)nc3n2[C@H]2CC[C@@H](C(N)=O)CC2)cc1Cl [Example 80, (1s,4s)-4-(8-(2,5-dichloro-4-methylphenylamino)-2-(tetrahydro-2H-pyran-4-ylamino)-9H-purin-9-yl)cyclohexanecarboxamide]",0.5 to 1
5,"CC[C@@H](CO)Nc1ncc2nc(Nc3c(Cl)cc(Cl)cc3Cl)n([C@H]3CC[C@@H](C(N)=O)CC3)c2n1 [Example 154, (1R,4s)-4-(2-((S)-1-hydroxybutan-2-ylamino)-8-(2,4,6-trichlorophenylamino)-9H-purin-9-yl)cyclohexanecarboxamide]",> 1
6,"NC(=O)[C@H]1CC[C@@H](n2c(Nc3c(Cl)cc(F)cc3Cl)nc3cnc(NC4CC(F)(F)C4)nc32)CC1 [Example 231, (1s,4s)-4-(8-(2,6-dichloro-4-fluorophenylamino)-2-(3,3-difluorocyclobutylamino)-9H-purin-9-yl)cyclohexanecarboxamide]",> 1
7,"NC(=O)[C@H]1CC[C@@H](n2c(Nc3c(F)cc(Cl)cc3Cl)nc3cnc(NC4CCCC4)nc32)CC1 [Example 122, (1s,4s)-4-(2-(cyclopentylamino)-8-(2,4-dichloro-6-fluorophenylamino)-9H-purin-9-yl)cyclohexanecarboxamide]",0.25 to 0.5
8,"NC(=O)[C@H]1CC[C@@H](n2c(Nc3c(F)cc(Cl)cc3F)nc3cnc(N[C@@H]4CC[C@H](O)C4)nc32)CC1 [Example 328, (1S,4s)-4-(8-(4-chloro-2,6-difluorophenylamino)-2-((1R,3S)-3-hydroxycyclopentylamino)-9H-purin-9-yl)cyclohexanecarboxamide]",> 1
9,"NC(=O)[C@H]1CC[C@@H](n2c(Nc3ccc(Cl)c(F)c3F)nc3cnc(N[C@@H]4CCC[C@H]4O)nc32)CC1 [Example 258, (1S,4s)-4-(8-(4-chloro-2,3-difluorophenylamino)-2-((1R,2R)-2-hydroxycyclopentylamino)-9H-purin-9-yl)cyclohexanecarboxamide]",> 1
10,"Cc1ccc(Nc2nc3cnc(NC4CCOCC4)nc3n2[C@H]2CC[C@@H](C(N)=O)CC2)c(Cl)c1Cl [Example 85, (1s,4s)-4-(8-(2,3-dichloro-4-methylphenylamino)-2-(tetrahydro-2H-pyran-4-ylamino)-9H-purin-9-yl)cyclohexanecarboxamide]",> 1
11,"C[C@@H](CO)Nc1ncc2nc(Nc3c(F)cc(F)cc3Cl)n([C@H]3CC[C@@H](C(N)=O)CC3)c2n1 [Example 136, (1R,4s)-4-(8-(2-chloro-4,6-difluorophenylamino)-2-((S)-1-hydroxypropan-2-ylamino)-9H-purin-9-yl)cyclohexanecarboxamide]",0.5 to 1
12,"NC(=O)[C@H]1CC[C@@H](n2c(Nc3c(F)cc(Cl)cc3F)nc3cnc(N[C@@H]4CC[C@@H](O)C4)nc32)CC1 [Example 215, (1S,4s)-4-(8-(4-chloro-2,6-difluorophenylamino)-2-((1R,3R)-3-hydroxycyclopentylamino)-9H-purin-9-yl)cyclohexanecarboxamide]",0.25 to 0.5
13,NC(=O)[C@H]1CC[C@@H](n2c(Nc3c(F)cc(F)cc3F)nc3cnc(NC4CCOCC4)nc32)CC1 [Example 11],< 0.25
14,"NC(=O)[C@H]1CC[C@@H](n2c(Nc3ccc(F)c(F)c3F)nc3cnc(NC4CCOCC4)nc32)CC1 [Example 66, (1s,4s)-4-(2-(tetrahydro-2H-pyran-4-ylamino)-8-(2,3,4-trifluorophenylamino)-9H-purin-9-yl)cyclohexanecarboxamide]",0.5 to 1
15,"N#Cc1cc(F)c(Nc2nc3cnc(NC4CCC4)nc3n2[C@H]2CC[C@@H](C(N)=O)CC2)c(Cl)c1 [Example 393, (1s,4s)-4-(8-(2-chloro-4-cyano-6-fluorophenylamino)-2-(cyclobutylamino)-9H-purin-9-yl)cyclohexanecarboxamide]",0.25 to 0.5
16,"NC(=O)[C@H]1CC[C@@H](n2c(Nc3c(F)cc(F)cc3F)nc3cnc(N[C@@H]4CCC[C@H](O)C4)nc32)CC1 [Example 347, (1S,4s)-4-(2-((1R,3S)-3-hydroxycyclohexylamino)-8-(2,4,6-trifluorophenylamino)-9H-purin-9-yl)cyclohexanecarboxamide]",> 1
17,"COc1ccc(Nc2nc3cnc(NC4CCOCC4)nc3n2[C@H]2CC[C@@H](C(N)=O)CC2)c(F)c1F [Example 380, (1s,4s)-4-(8-(2,3-difluoro-4-methoxyphenylamino)-2-(tetrahydro-2H-pyran-4-ylamino)-9H-purin-9-yl)cyclohexanecarboxamide]",> 1
18,"C[C@@H](CO)Nc1ncc2nc(Nc3c(F)cc(C#N)cc3F)n([C@H]3CC[C@@H](C(N)=O)CC3)c2n1 [Example 394, (1R,4s)-4-(8-(4-cyano-2,6-difluorophenylamino)-2-((S)-1-hydroxypropan-2-ylamino)-9H-purin-9-yl)cyclohexanecarboxamide]",> 1

# Same assay, conditions: Homo sapiens; Lox-IMVI anti-proliferative assay, IC50 activity level; read-out: Activity
row,Compound,IC50 [µM]
1,"N#Cc1cc(Cl)c(Nc2nc3cnc(NC4CC(F)(F)C4)nc3n2[C@H]2CC[C@@H](C(N)=O)CC2)c(Cl)c1 [Example 399, (1s,4s)-4-(8-(2,6-dichloro-4-cyanophenylamino)-2-(3,3-difluorocyclobutylamino)-9H-purin-9-yl)cyclohexanecarboxamide]",0.25 to 0.5
2,"COC(=O)N1CCCC(Nc2ncc3nc(Nc4c(Cl)cccc4Cl)n([C@H]4CC[C@@H](C(N)=O)CC4)c3n2)C1 (stereo partly drawn) [Example 405, (R)-methyl 3-(9-((1s,4S)-4-carbamoylcyclohexyl)-8-(2,6-dichlorophenylamino)-9H-purin-2-ylamino)piperidine-1-carboxylate]",> 1
3,"NC(=O)[C@H]1CC[C@@H](n2c(Nc3c(Cl)cc(F)cc3Cl)nc3cnc(NCC(F)(F)CO)nc32)CC1 [Example 452, (1s,4s)-4-(8-(2,6-dichloro-4-fluorophenylamino)-2-(2,2-difluoro-3-hydroxypropylamino)-9H-purin-9-yl)cyclohexanecarboxamide]",> 1
4,"C[C@@H]1COCC[C@H]1Nc1ncc2nc(Nc3c(Cl)cc(C#N)cc3Cl)n([C@H]3CC[C@@H](C(N)=O)CC3)c2n1 [Example 495, (1S,4s)-4-(8-(2,6-dichloro-4-cyanophenylamino)-2-((3S,4R)-3-methyltetrahydro-2H-pyran-4-ylamino)-9H-purin-9-yl)cyclohexanecarboxamide]",< 0.25

# Same assay, conditions: Homo sapiens; Lox-IMVI melanoma cell line, anti-proliferative assay; read-out: Activity (IC50 activity level)
row,Compound,IC50 [µM]
1,"C[C@@H]1COCC[C@H]1Nc1ncc2nc(Nc3c(F)cc(Cl)cc3Cl)n([C@H]3CC[C@@](C)(C(N)=O)CC3)c2n1 [Example 717, (1S,4s)-4-(8-(2,4-dichloro-6-fluorophenylamino)-2-((3S,4R)-3-methyltetrahydro-2H-pyran-4-ylamino)-9H-purin-9-yl)-1-methylcyclohexanecarboxamide]",< 0.25
2,"CC(C)OC(=O)N1CCC[C@@H](Nc2ncc3nc(Nc4c(F)cc(Cl)cc4Cl)n([C@H]4CC[C@@H](C(N)=O)CC4)c3n2)C1 [Example 774, (R)-isopropyl 3-(9-((1s,4S)-4-carbamoylcyclohexyl)-8-(2,4-dichloro-6-fluorophenylamino)-9H-purin-2-ylamino)piperidine-1-carboxylate]",0.25 to 0.5
3,"N#Cc1cc(F)c(Nc2nc3cnc(N[C@@H]4CCOC[C@H]4F)nc3n2[C@H]2CC[C@@H](C(N)=O)CC2)c(Cl)c1 [Example 629, (1S,4s)-4-(8-(2-chloro-4-cyano-6-fluorophenylamino)-2-((3S,4R)-3-fluorotetrahydro-2H-pyran-4-ylamino)-9H-purin-9-yl)cyclohexanecarboxamide]",< 0.25
4,"C[C@]1(C(N)=O)CC[C@@H](n2c(Nc3c(Cl)cc(Cl)cc3Cl)nc3cnc(N[C@@H]4CC[C@@H](O)C4)nc32)CC1 [Example 636, (1S,4s)-4-(2-((1R,3R)-3-hydroxycyclopentylamino)-8-(2,4,6-trichlorophenylamino)-9H-purin-9-yl)-1-methylcyclohexanecarboxamide]",< 0.25
5,"C[C@]1(C(N)=O)CC[C@@H](n2c(Nc3c(Cl)cc(C#N)cc3Cl)nc3cnc(NC4CCC4)nc32)CC1 [Example 599, (1s,4s)-4-(2-(cyclobutylamino)-8-(2,6-dichloro-4-cyanophenylamino)-9H-purin-9-yl)-1-methylcyclohexanecarboxamide]",< 0.25
6,"C[C@]1(C(N)=O)CC[C@@H](n2c(Nc3c(Cl)cc(C#N)cc3Cl)nc3cnc(N[C@@H]4CCC[C@@H](O)C4)nc32)CC1 [Example 624, (1S,4s)-4-(8-(2,6-dichloro-4-cyanophenylamino)-2-((1R,3R)-3-hydroxycyclohexylamino)-9H-purin-9-yl)-1-methylcyclohexanecarboxamide]",0.25 to 0.5
7,"CCN1CCC[C@@H](Nc2ncc3nc(Nc4c(Cl)cc(C(F)(F)F)cc4Cl)n([C@H]4CC[C@@H](C(N)=O)CC4)c3n2)C1 [Example 737, (1S,4s)-4-(8-(2,6-dichloro-4-(trifluoromethyl)phenylamino)-2-((R)-1-ethylpiperidin-3-ylamino)-9H-purin-9-yl)cyclohexanecarboxamide]",> 1
